What was measured:
[1] = Pharmacokinetic study in mice; type: in vivo; conditions: mouse, plasma, iv, single 12.5 mg/kg bolus, two-compartment model, read-out: Estimated maximum plasma concentration (Cmax)
Experimental: In pharmacokinetic studies, mice were injected either intravenously (i.v.) via the tail vein or intraperitoneally (i.p.) with a bolus dose of 300 μg/mouse (˜12.5 mg/kg=34 μmols/kg) of HI-P131. Blood samples were obtained from the ocular venous plexus by retroorbital venupuncture prior to and at 3 minutes, 5 minutes, 10 minutes, 15 minutes, 30 minutes, 45 minutes and 1 hour, 2 hours, 4 hours, and 8 hours after administration of HI-P 131. All collected blood samples were heparinized and centrifuged at 7,000 xg for 10 minutes in a microcentrifuge to obtain plasma. The plasma samples were stored at −20° C. until analysis. Aliquots of plasma were used for extraction and HPLC analysis. […] The area under the concentration time curve (AUC) was calculated by the trapezoidal rule between first (0 h) and last sampling time plus C/k, where C is the concentration of last sampling and k is the elimination rate constant. Systemic clearance (CL) was determined by dividing the dose by the AUC. The apparent volume of distribution at steady-state was calculated using the following equation, Vss=Dose·AUMC/(AUC)^2. […]
A highly sensitive quantitative HPLC detection method (Chen et al., 1998, J. Chromatography B (Biomedical sciences), in press) was used to determine the pharmocokinetics of HI-P131. […]

mice = experiment: Single bolus dose toxicity in mice; type: in vivo
Experimental: (§1) HI-P131 was not toxic to mice at intraperitoneal single bolus doses ranging from 0.5 mg/kg to 250 mg/kg. […] Thus, the maximum tolerated dose (MlD) of HI-P131 was not reached at 250 mg/kg. We next examined the pharmacokinetic features of HI-P131 in mice. A two-compartment pharmacokinetic model was fit to the pharmacokinetics data obtained following the intravenous (i.v.) or intraperitoneal (i.p.) administration of a single non-toxic 12.5 mg/kg bolus dose of HI-P131.

[2] = Single bolus dose toxicity in mice; type: in vivo; conditions: mouse, in vivo, ip
Experimental: as §1

[3] = system: BT20 human breast cancer cells; experiment: MTT cytotoxicity assay, BT20; type: cell-based; conditions: Homo sapiens, BT-20, Table 4, OH substituted, 24–36 hours
Experimental: (§2) The cytotoxicity assay of various compounds against human tumor cell lines was performed using the MTT (3-[4,5-dimethylthiazol-2-yl]-2,5-diphenyl tetrazolium bromide) assay (Boehringer Mannheim Corp., Indianapolis, Ind.). Briefly, exponentially growing tumor cells were seeded into a 96-well plate at a density of 2.5×10^4 cells/well and incubated for 36 hours at 37° C. prior to drug exposure. On the day of treatment, culture medium was carefully aspirated from the wells and replaced with fresh medium containing the quinazoline compounds at concentrations ranging from 0.1 to 250 μM. Triplicate wells were used for each treatment.
(§3) Human cell lines were obtained from American Type Culture Collection (Rockville, Md.) and maintained as a continuous cell line in Dulbecco's modified Eagles' medium supplemented with 10% fetal bovine serum and antibiotics. Cells used in this study include human leukemia cells (NALM-6 and MOLT-3), human breast cancer cells ([…]), human prostate cancer cells (PC3), and human brain tumor cells (U373).
(§4) The cells were incubated with the various compounds for 24–36 hours at 37° C. in a humidified 5% CO2 atmosphere. To each well, 10 μl of MTT (0.5 mg/ml final concentration) was added and the plates were incubated at 37° C. for 4 hours to allow MTT to form formazan crystals by reacting with metabolically active cells. The formazan crystals were solubilized overnight at 37° C. in a solution containing 10% SDS in 0.01 M HCl. The absorbance of each well was measured in a microplate reader (Labsystems) at 540 nm and a reference wavelength of 690 nm. To translate the OD 540 values into the number of live cells in each well, the OD 540 values were compared to those on standard OD 540—versus—cell number curves generated for each cell line. The percent survival was calculated using the formula:
(§5) [formula] The IC50 values were calculated by non-linear regression analysis. Detection of Apoptosis

[4] = system: NALM-6 human leukemia cells; experiment: MTT cytotoxicity assay, NALM-6; type: cell-based; conditions: Homo sapiens, NALM-6, Table 4, OH substituted, 24–36 hours
Experimental: as §2, §3, §4, §5

[5] = system: U373 human brain tumor cells; experiment: MTT cytotoxicity assay, U373; type: cell-based; conditions: Homo sapiens, U373 MG, Table 4, OH substituted, 24–36 hours
Experimental: as §2, §3, §4, §5

[6] = system: MOLT-3 human leukemia cells; experiment: MTT cytotoxicity assay, MOLT-3; type: cell-based; conditions: Homo sapiens, MOLT-3, Table 4, OH substituted, 24–36 hours
Experimental: as §2, §3, §4, §5

For `COc1cc2ncnc(Nc3ccc(O)cc3)c2cc1OC` [HI-P131, 4-(4′-Hydroxylphenyl)-amino-6,7-dimethoxyquinazoline], the Cmax [1] was 85.6 µM, the “Side effects or death of toxicity” value (mice; 50 mice, 30 day observation period) was “None of the 50 mice treated with HI-P131 experienced side effects or died of toxicity” and the “Histopathologic lesions in organs” value (mice; mouse, in vivo) was “No histopathologic lesions”. The Toxicity to mice (mice; mouse, in vivo) was “not toxic”, the MTD at 30 day [2] was greater than 250 mg/kg and the IC50 [3] was greater than 250 µM. For the same compound, the IC50 [4] was 32.1 µM, the IC50 [5] was greater than 250 µM and the IC50 [6] was 38.6 µM.

From patent publication US7038049B2, “Haloanilino quinazolines and therapeutic use thereof” (Parker Hughes Institute, priority 1999, dated 2006)
